Reference: patent US6541517B1, “Treatment of skin disorders” (priority 1999, dated 2003)

How the values were obtained:
[1] = test system: patients who presented with psoriatic lesions; assay: Topical treatment of psoriasis in outpatients; assay type: in vivo, human; details: applied as a topical, episodic treatment for psoriasis
Description: Eight patients who presented with psoriatic lesions were treated with the ointment of Example 1 on an outpatient basis. The ointment of Example 1 was applied to the psoriatic lesions up to four times per day.

[2] = water, alcohol, ether and chloroform; cited from earlier work
[3] = Federal Register, vol. 47, 12553 (Mar. 23, 1982); cited from earlier work

Structure (SMILES) | effect on psoriatic lesions [1] | miscibility [2] | safety for topical use [3]
CC(=O)OCC(COC(C)=O)OC(C)=O [Triacetin, 1,2,3-propanetriol triacetate] | improve psoriatic lesions | miscible in water, alcohol, ether and chloroform | safe for topical use
CC(=O)OCC(CO)OC(C)=O (centres unmarked) [diacetin, glycerol diacetate] |  | miscible in water, alcohol, ether and chloroform | 
CC(=O)OCC(O)CO (centres unmarked) [monacetin, glycerol monoacetate] |  | miscible in water, alcohol, ether and chloroform | 
